Measured values from US9060997B2, “Antifolate compounds for the treatment of melanoma” (UNIVERSIDAD DE MURCIA, priority 2007, dated 2015).

Experiments:
[1] = test system: H1264 cells; assay: MTT cell proliferation assay, H1264; type: cell-based; conditions: Homo sapiens, 144 h; H1264, 6 days of treatment
Experimental: Four human cancer cells lines (SkMel-28, MCF7, H1264 and Caco-2) were obtained from the American Type Tissue Culture Collection (ATCC) and were maintained in appropriate culture mediums supplemented with 10% fetal calf serum (FCS) and antibiotics, under standard tissue culture conditions (e.g. modified Eagle's medium (MEM) containing 1 mM sodium pyruvate and 10% fetal bovine serum (FES) under 5% CO2/95% air atmosphere.). Cell injury was evaluated by a colorimetric assay for mitochondrial function using the 3-(4,5-dimethylthiazolyl-2)-2,5-diphenyltetrazolium bromide (MTT) cell proliferation assay. For this assay cells were plated in a 96-well plate at a density of 1000 cells/well and grown until they reached 50-60% confluence. Human epidermal melanocytes (HeM) were supplied by Gentaur and were cultured in HAM-F10 medium supplemented with 10% FCS, antibiotics and the human melanocyte growth supplement (Gentaur).

[2] = test system: Caco-2 and SkMel-28 cells; assay: Cellular uptake of ECG, TMECG and QM; type: in vitro ADME, human; conditions: 50 μM catechins
Experimental: Cellular uptake was determined by the difference between the initial concentration of catechin and the calculated at specific times in the cellular medium, and expressed as a percentage of catechin at zero time. The values presented are the mean percentage determined from five independent experiments±SD.
For cellular uptake experiments Caco-2 and SkMel-28 cells were grown until reaching 90% confluence. Then, 20 ml of cellular medium containing 50 μM catechins and 0.2 mM ascorbic acid was added and incubated for 60 h in a CO2 incubator. At specified times 1 ml-aliquots were taken and frozen in liquid N2 until the catechin concentrations were determined by HPLC. Catechins were identified by their characteristic elution times and their concentration calculated with respect to calibration curves of known concentrations of catechins.

[3] = target: T1, rHDHFR (Homo sapiens, UniProt P00374); assay: rHDHFR binding: fluorescence titration and stopped-flow fluorescence
T1 construct: purchased Sigma
T1 sequence (P00374 1-187): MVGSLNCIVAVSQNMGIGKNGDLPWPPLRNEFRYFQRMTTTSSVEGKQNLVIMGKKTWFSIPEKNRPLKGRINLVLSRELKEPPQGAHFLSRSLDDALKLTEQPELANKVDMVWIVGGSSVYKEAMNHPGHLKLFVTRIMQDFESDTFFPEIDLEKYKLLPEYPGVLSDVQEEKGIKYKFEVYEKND
Experimental: The experiments were carried out in a buffer containing 2-(N-morpholino)ethanesulfonic acid (Mes, 0.025 M), sodium acetate (0.025 M), tris-(hydroxymethyl)aminomethane (Tris 0.05 M), and NaCl (0.1 M) at pH 7.4 and 25° C. in the presence of QM and rHDHFR (0.5 μM).
Stopped-flow fluorescence experiments were carried out at pH 7.4 and 25° C. using an enzyme concentration of 0.25 μM. The reaction of rHDHFR with inhibitors was observed under pseudo-first order conditions by fluorescence at 340 nm (excitation at 290 nm). The data points s are the means of at least 3 (normally 5) repeat observations±SD. […] Aliquots (20 μl) of the incubation mixture was then diluted 50-fold into a reaction mixture containing the buffer, NADPH (100 μM), and DHF (10 μM) to give a final enzyme concentration of 1.5 nM.
(§1) The activity of rHDHFR was determined at 25° C. by following the decrease in the absorbance of NADPH and DHF at 340 nm (ε=11800 M-1 cm−1) (Stone and Morrison, 1986). Progress curves were obtained under ordered conditions ([NADPH]>>[DHF]). rHDHFR inhibition constants were calculated as described by Navarro-Perán et al., 2005b. The dissociation constant for the binding of inhibitors to free rHDHFR was determined at 25° C. by fluorescence titration in an automatic-scanning Perkin-Elmer LS50B spectrofluorimeter. Fluorescence emission spectra were recorded when rHDHFR fluorescence was excited at 290 nm. Stopped-flow fluorescence experiments were carried out using an Applied Photophysics Ltd. Pi-Star 180 spectrometer with a stopped-flow unit at 25° C.

[4] = target: T1, rHDHFR; assay: rHDHFR inhibition, progress curves; type: biochemical
Experimental: The experiments were carried out in the same buffer as fluorescence experiments in the presence of NADPH (100 μM), DHF (10 μM), and rHDHFR (1.5 nM).
as §1

[5] = test system: Reduced folate carrier (RFC) mRNA; assay: Real-time PCR of RFC expression in SkMel-28; type: cell-based, human; conditions: 50 μM, after 24 h of treatment
Experimental: Data were obtained by real time PCR and compared with the relative expression of RFC in normal human skin (zero relative gene expression). Zero time represents the level of RFC in untreated SkMel-28 cells.
PolyA+ mRNA from human adult skin was purchased from Invitrogen. SkMel-28 and HEM polyA+ mRNA was extracted from 5×10^6 cells using the Illustra Quick Prep Micro mRNA purification kit (GE Healthcare). mRNA (200 ng) was used to synthesize cDNA using SuperScript First-Strand Synthesis System (Invitrogen). PCR amplification of 2 μL of the cDNA strand generated was carried out in a total volume of 50 μL using an Eppendorf Mastercycler Thermal Cycler. Samples were amplified by 40 cycles at 95° C. (1 min), 62° C. (1 min) and 72° C. (1 min). The amplified PCR products were subjected to electrophoresis in 3% agarose gel and stained with ethidium bromide.
cDNA samples (1 μL) were used for real-time PCR in a total volume of 20 μL using SYBR Green Reagent (Applied Biosystems) and specific primers on a 7500 Real Time PCR System of Applied Biosystems. […] Amplification of target gene sequences were compared against serial dilutions of know quantities of their purified cDNA fragments, and normalized to the abundance of the house-keeping gene β-actin.

[6] = test system: B16/F10 melanoma cell tumours; assay: Primary tumour model, B16/F10 melanoma in C57/B16 mice; type: in vivo, mouse
Excerpt: Translational therapy was then designed to probe the efficacy of this combination on mice induced melanoma tumor. Injection of 5×10^5 B16/F10 melanoma cells in the back of C57/B16 mice formed a blackish tumor mass, which in untreated control mice reached to a tumor area of 3.7±0.7 and 9.3±1.1 cm2 in female and male, respectively, after 21 days of cells inoculation.

COc1cc(C(=O)O[C@@H]2Cc3c(O)cc(O)cc3O[C@@H]2c2ccc(O)c(O)c2)cc(OC)c1OC [TMECG, 3-O-(3,4,5-trimethoxybenzoyl)-(−)-epicatechin]
IC50 [1]: 18 µM | cellular uptake / membrane transport [2]: greater than the uptake of its related natural catechin, ECG | koff ([3]; calculated from KI=koff/kon, read-out: koff): 0.29 s⁻¹ | Ki ([3]; dissociation constant, free rHDHFR, fluorescence titration, pH 7.4, 25° C.): 2100 nM | kon ([3]; stopped-flow fluorescence, pH 7.4, 25° C., read-out: kon): 140000 M⁻¹ s⁻¹ | Decrease % further EI reactions ([4]; decrease of KI to KI* by further EI-complex reactions): 19 −fold | Ki ([4]; read-out: effective inhibition constant (KI*)): 110 nM | reduction in RFC expression [5]: more than 80% | tumor mass reduction ([6]; females, TMECG 2.5 mg/Kg/d): 27% | effect of single treatments ([6]; male mice): not effective
